Experiments:
[1] = tested on: methionine N^α -acetyltransferase (M-N^α -AT); experiment: Relative activity of M-N^α -AT for N^α -acetylation of synthetic peptides; type: biochemical, Saccharomyces cerevisiae; parameters: tested at 50 µM; conditions: Table 7, influence of the penultimate amino terminal residue
Procedure: (§1) N^α -acetylt[…] was determined as previously described [Lee et al., J. Biol. Chem. 263:14948-14955 (1988)]. Aliquots of the lysate or chromatographic fractions were added to 1.5 ml Eppendorf tubes containing a reaction mixture of 50 mM HEPES, pH 7.4, 150 mM KCl, 1 mM DTT, 25 μM [^3 H] acetyl coenzyme A (0.5 μCi) and 50 μM synthetic peptide with an adjusted final volume of 100 μl. The assay mixture was incubated at 30° C. for 30 min. The reaction was stopped by adding 17 μl of 0.5M acetic acid and chilled in an ice bath. The reaction samples were filtered through SP membrane discs (Cuno) (previously pre-swollen in 0.5M acetic acid), and then washed three times with 1 ml of 0.5M acetic acid on a Millipore 1225 sampling manifold. The partially dried membranes were placed in scintillation cocktail and counted with a Beckman LS 3801 scintillation counter. One unit of activity was defined as the amount of enzyme able to transfer 1 pmol of [^3 H] acetyl group from [^3 H] acetyl coenzyme A to synthetic peptide per min under standard enzyme assay conditions defined above.
(§2) In order to compare the relative specificity and activity of the methionine N^α -acetylt[…] (M-N^α -AT) of the present invention with the specificity and activity of the AAA1 N^α -acetyltransferase (N^α -AT) of Lee, F.-J. S., et al., J. Bacteriol. 171, (1989), U.S. Patent Application of John A. Smith, and Fang-Jen S. Lee, filed Oct. 25, 1989, entitled "ISOLATION OF STRAINS OF SAC[…] ALTERED N^α -ACETYLT[…]" (which references have been incorporated herein by reference) synthetic peptides were prepared. These peptides were assessed for their ability to serve as substrates for the two enzymes. In Table 6, the effect of the amino terminal amino acid on activity is investigated; in Table 7, the effect of the penultimate amino terminal amino acid on activity is investigated.

[2] = biological target: T1, AAA1 N^α -acetyltransferase (N^α -AT) (Saccharomyces cerevisiae, UniProt P07347+P12945); experiment: Relative activity of N^α -AT for N^α -acetylation of synthetic peptides; type: biochemical; conditions: Table 7, influence of the penultimate amino terminal residue
T1 sequence (P12945 2-854 limits assumed): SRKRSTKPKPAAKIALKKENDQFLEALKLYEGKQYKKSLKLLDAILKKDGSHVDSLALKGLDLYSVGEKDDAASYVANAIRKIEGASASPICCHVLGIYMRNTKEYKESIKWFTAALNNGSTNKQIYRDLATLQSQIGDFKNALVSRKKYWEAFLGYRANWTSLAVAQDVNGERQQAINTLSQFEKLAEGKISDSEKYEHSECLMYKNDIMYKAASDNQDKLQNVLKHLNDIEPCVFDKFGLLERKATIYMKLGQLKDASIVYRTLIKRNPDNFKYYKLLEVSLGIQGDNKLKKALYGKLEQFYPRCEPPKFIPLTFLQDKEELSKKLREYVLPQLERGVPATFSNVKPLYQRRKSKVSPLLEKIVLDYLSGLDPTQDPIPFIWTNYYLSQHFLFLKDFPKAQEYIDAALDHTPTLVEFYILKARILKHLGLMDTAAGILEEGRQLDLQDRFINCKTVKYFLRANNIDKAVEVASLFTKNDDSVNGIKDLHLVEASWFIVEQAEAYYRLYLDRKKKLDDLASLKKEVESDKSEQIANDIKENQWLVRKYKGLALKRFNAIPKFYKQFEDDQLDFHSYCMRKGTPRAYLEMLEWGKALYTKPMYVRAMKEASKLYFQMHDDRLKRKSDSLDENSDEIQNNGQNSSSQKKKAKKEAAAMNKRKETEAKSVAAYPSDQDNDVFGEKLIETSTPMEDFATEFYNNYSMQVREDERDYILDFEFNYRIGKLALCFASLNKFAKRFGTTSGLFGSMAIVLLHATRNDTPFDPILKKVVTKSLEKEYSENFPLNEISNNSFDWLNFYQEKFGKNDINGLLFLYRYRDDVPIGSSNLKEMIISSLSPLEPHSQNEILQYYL
T1 sequence (P07347 1-238): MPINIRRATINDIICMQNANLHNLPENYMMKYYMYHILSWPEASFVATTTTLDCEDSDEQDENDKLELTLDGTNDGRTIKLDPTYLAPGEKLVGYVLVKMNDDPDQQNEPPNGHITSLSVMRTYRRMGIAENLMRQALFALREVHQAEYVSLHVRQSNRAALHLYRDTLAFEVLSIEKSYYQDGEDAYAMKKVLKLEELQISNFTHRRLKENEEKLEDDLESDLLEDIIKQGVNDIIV
Procedure: as §1, §2

SAPETQKGVIFYESHGKLEYKDIP (SAPETQKGVIFYESHGKLEYKDIP)
Activity (%) (mean activity ± S.D.) M-N^a -AT [1]: 0%
Activity (%) (mean activity ± S.D.) N^a -AT [2]: 168 ± 8%

SCPETQKGVIFYESHGKLEYKDIP (SCPETQKGVIFYESHGKLEYKDIP)
Activity (%) (mean activity ± S.D.) M-N^a -AT [1]: 0%
Activity (%) (mean activity ± S.D.) N^a -AT [2]: 136 ± 7%

SDPETQKGVIFYESHGKLEYKDIP (SDPETQKGVIFYESHGKLEYKDIP)
Activity (%) (mean activity ± S.D.) M-N^a -AT [1]: 0%
Activity (%) (mean activity ± S.D.) N^a -AT [2]: 171 ± 9%

SEPETQKGVIFYESHGKLEYKDIP (SEPETQKGVIFYESHGKLEYKDIP)
Activity (%) (mean activity ± S.D.) M-N^a -AT [1]: 0%
Activity (%) (mean activity ± S.D.) N^a -AT [2]: 121 ± 6%

SFPETQKGVIFYESHGKLEYKDIP (SFPETQKGVIFYESHGKLEYKDIP)
Activity (%) (mean activity ± S.D.) M-N^a -AT [1]: 0%
Activity (%) (mean activity ± S.D.) N^a -AT [2]: 118 ± 6%

SGPETQKGVIFYESHGKLEYKDIP (SGPETQKGVIFYESHGKLEYKDIP)
Activity (%) (mean activity ± S.D.) M-N^a -AT [1]: 0%
Activity (%) (mean activity ± S.D.) N^a -AT [2]: 84 ± 5%

SHPETQKGVIFYESHGKLEYKDIP (SHPETQKGVIFYESHGKLEYKDIP)
Activity (%) (mean activity ± S.D.) M-N^a -AT [1]: 0%
Activity (%) (mean activity ± S.D.) N^a -AT [2]: 125 ± 6%

SKPETQKGVIFYESHGKLEYKDIP (SKPETQKGVIFYESHGKLEYKDIP)
Activity (%) (mean activity ± S.D.) M-N^a -AT [1]: 0%
Activity (%) (mean activity ± S.D.) N^a -AT [2]: 151 ± 6%

SLPETQKGVIFYESHGKLEYKDIP (SLPETQKGVIFYESHGKLEYKDIP)
Activity (%) (mean activity ± S.D.) M-N^a -AT [1]: 0%
Activity (%) (mean activity ± S.D.) N^a -AT [2]: 126 ± 5%

SMPETQKGVIFYESHGKLEYKDIP (SMPETQKGVIFYESHGKLEYKDIP)
Activity (%) (mean activity ± S.D.) M-N^a -AT [1]: 0%
Activity (%) (mean activity ± S.D.) N^a -AT [2]: 140 ± 7%

SNPETQKGVIFYESHGKLEYKDIP (SNPETQKGVIFYESHGKLEYKDIP)
Activity (%) (mean activity ± S.D.) M-N^a -AT [1]: 0%
Activity (%) (mean activity ± S.D.) N^a -AT [2]: 116 ± 5%

SPPETQKGVIFYESHGKLEYKDIP (SPPETQKGVIFYESHGKLEYKDIP)
Activity (%) (mean activity ± S.D.) M-N^a -AT [1]: 0%
Activity (%) (mean activity ± S.D.) N^a -AT [2]: 0%

SQPETQKGVIFYESHGKLEYKDIP (SQPETQKGVIFYESHGKLEYKDIP)
Activity (%) (mean activity ± S.D.) M-N^a -AT [1]: 0%
Activity (%) (mean activity ± S.D.) N^a -AT [2]: 134 ± 7%

SRPETQKGVIFYESHGKLEYKDIP (SRPETQKGVIFYESHGKLEYKDIP)
Activity (%) (mean activity ± S.D.) M-N^a -AT [1]: 0%
Activity (%) (mean activity ± S.D.) N^a -AT [2]: 102 ± 5%

SSPETQKGVIFYESHGKLEYKDIP (SSPETQKGVIFYESHGKLEYKDIP)
Activity (%) (mean activity ± S.D.) M-N^a -AT [1]: 0%
Activity (%) (mean activity ± S.D.) N^a -AT [2]: 140 ± 6%

STPETQKGVIFYESHGKLEYKDIP (STPETQKGVIFYESHGKLEYKDIP)
Activity (%) (mean activity ± S.D.) M-N^a -AT [1]: 0%
Activity (%) (mean activity ± S.D.) N^a -AT [2]: 144 ± 8%

SVPETQKGVIFYESHGKLEYKDIP (SVPETQKGVIFYESHGKLEYKDIP)
Activity (%) (mean activity ± S.D.) M-N^a -AT [1]: 0%
Activity (%) (mean activity ± S.D.) N^a -AT [2]: 123 ± 7%

SWPETQKGVIFYESHGKLEYKDIP (SWPETQKGVIFYESHGKLEYKDIP)
Activity (%) (mean activity ± S.D.) M-N^a -AT [1]: 0%
Activity (%) (mean activity ± S.D.) N^a -AT [2]: 91 ± 5%

SYPETQKGVIFYESHGKLEYKDIP (SYPETQKGVIFYESHGKLEYKDIP)
Activity (%) (mean activity ± S.D.) M-N^a -AT [1]: 0%
Activity (%) (mean activity ± S.D.) N^a -AT [2]: 169 ± 8%

From US5223421A, “Identification of methionine Nα-acetyltransferase” (The General Hospital Corporation, priority 1990, dated 1993)
